Drawing on patent publication US8546442B2, “Pyrazolopiperidine compounds as CCR1 receptor antagonists” (Boehringer Ingelheim International GmbH, priority 2010, dated 2013), this text covers IC50 for 28 compounds.

The target of this test is T1, CCR1 (Homo sapiens, UniProt P32246).
T1 sequence (P32246 1-355): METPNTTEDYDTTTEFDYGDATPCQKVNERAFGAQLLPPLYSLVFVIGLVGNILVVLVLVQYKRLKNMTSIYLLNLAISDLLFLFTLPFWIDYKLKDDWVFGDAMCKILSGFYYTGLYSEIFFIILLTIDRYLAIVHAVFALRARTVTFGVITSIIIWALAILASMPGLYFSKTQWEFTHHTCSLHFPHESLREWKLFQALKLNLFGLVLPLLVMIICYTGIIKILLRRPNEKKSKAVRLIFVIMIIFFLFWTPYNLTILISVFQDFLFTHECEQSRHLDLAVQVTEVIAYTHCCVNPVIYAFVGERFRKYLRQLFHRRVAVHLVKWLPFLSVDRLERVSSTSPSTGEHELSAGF
The test is described as follows: calcium flux in CCR1 transfected cells, Method B (Calcium 4 dye, HAMAMATSU FDSS6000). It counts as cell-based. The conditions noted are these: cells stably expressing recombinant CCR1 and G-alpha-16, MIP-1alpha at EC80. As to the method: Compounds are assessed for the ability to block the interaction of CCR1 and MIP-1α in a functional cellular assay measuring calcium flux in CCR1 transfected cells.
Method B: Non-adherent cells purchased from Chemicon Corporation (HTS005C), stably expressing recombinant CCR1 and G-alpha-16 are grown in RPMI 1640 medium (Mediatech 10-080-CM) supplemented with 10% FBS, 0.4 mg/mL Geneticin and penicillin/streptomycin. On the day of the assay, the cells are loaded with Calcium 4 dye (Molecular Devices R7448) with Probenecid (Invitrogen P346400) at 8E5 cells/mL for 1 hour at room temperature. After 1 hour, they are seeded in a 384-well tissue culture-treated plate at a density of 20,000 cells/well. Appropriately diluted test compound is added to the well to achieve a top concentration of 3,000 nM (diluted 4-fold with 10 doses total). The final concentration of DMSO is 1%. The buffer is HBSS (Invitrogen 14025) with 20 mM HEPES at pH 7.4. The cells incubate 30 minutes at 37 C and then 30 minutes at room temperature. The plates are transferred to the HAMAMATSU FDSS6000 where MIP-1alpha in 1% BSA is added at the EC80 final concentration. All plates must be read within 4 hours of the start of dye-loading. Wells+/−MIP-1alpha containing diluted DMSO instead of compound serve as the controls. Data are analyzed using Activity Base software.
On the technique in general: Calcium flux is commonly read through the fluorescence of an indicator in the cells.
One may read the IC50 as the concentration needed to halve the response being measured. As to `CCC[C@H](NC(=O)N1c2cnn(-c3ccc(F)cc3)c2CCC1C(F)(F)F)c1cc(S(C)(=O)=O)ccc1F` (single isomer, unassigned) [Example 77], the concentration for half-maximal inhibition (IC50) amounted to 37 nM.
The value for `CCC[C@H](NC(=O)N1c2cnn(-c3ccc(F)cc3)c2CCC1C)c1ccnc(S(C)(=O)=O)c1` (single isomer, unassigned) [Example 80] was 31 nM.
The value for `CCC[C@H](NC(=O)N1c2cnn(-c3ccc(F)cc3)c2CCC1C)c1ccnc(S(C)(=O)=O)c1` (single isomer, unassigned) [Example 81] was 4 nM; that for `C[C@H](NC(=O)N1CCCc2c1cnn2-c1ccc(F)cc1)c1ccccc1` [Example 2] was 453 nM.
The value for `O=C(NCCc1ccccc1)N1CCCc2c1cnn2-c1ccc(F)cc1` [Example 3] was 126 nM.
In the case of `Cc1ccccc1CNC(=O)N1CCCc2c1cnn2-c1ccc(F)cc1` [Example 4], the IC50 amounted to 283 nM.
Take `Cc1ccc(CNC(=O)N2CCCc3c2cnn3-c2ccc(F)cc2)cc1` [Example 5]: the IC50 was 90 nM.
The value for `C[C@@H](NC(=O)N1CCCc2c1cnn2-c1ccc(F)cc1)c1ccccc1` [Example 6] was 125 nM.
The value for `O=C(NCc1ccc(F)cc1)N1CCCc2c1cnn2-c1ccc(F)cc1` [Example 7] was 183 nM; that for `O=C(NCc1ccccc1F)N1CCCc2c1cnn2-c1ccc(F)cc1` [Example 8] was 266 nM; that for `O=C(NCc1cccc(F)c1)N1CCCc2c1cnn2-c1ccc(F)cc1` [Example 9] was 108 nM.
For `COc1ccc(CNC(=O)N2CCCc3c2cnn3-c2ccc(F)cc2)cc1` [Example 10] the value was 266 nM; for `COc1ccccc1CNC(=O)N1CCCc2c1cnn2-c1ccc(F)cc1` [Example 11], 610 nM; for `O=C(NCc1ccccc1Cl)N1CCCc2c1cnn2-c1ccc(F)cc1` [Example 12], 138 nM.
As for `O=C(NCc1ccc(Cl)cc1)N1CCCc2c1cnn2-c1ccc(F)cc1` [Example 13], the IC50 is 45 nM.
For `COc1ccc([C@H](C)NC(=O)N2CCCc3c2cnn3-c2ccc(F)cc2)cc1` [Example 14] the value was 102 nM.
For `O=C(Nc1cccc(C(F)(F)F)c1)N1CCCc2c1cnn2-c1ccc(F)cc1` [Example 15] the value was 115 nM; for `O=C(NCc1ccc(Cl)cc1Cl)N1CCCc2c1cnn2-c1ccc(F)cc1` [Example 16], 12 nM; for `O=C(NCc1ccc(Cl)c(Cl)c1)N1CCCc2c1cnn2-c1ccc(F)cc1` [Example 17], 1 nM.
As to `Cc1cccc(CNC(=O)N2CCCc3c2cnn3-c2ccc(F)cc2)c1` [Example 18], the IC50 is 131 nM.
For `O=C(NCc1ccccc1)N1CCCc2c1cnn2-c1ccc(F)cc1` [Example 19] the value was 395 nM; for `COc1cccc(CNC(=O)N2CCCc3c2cnn3-c2ccc(F)cc2)c1` [Example 20], 91 nM.
For `O=C(NCc1cccc(C(F)(F)F)c1)N1CCCc2c1cnn2-c1ccc(F)cc1` [Example 21, 1-(4-Fluorophenyl)-N-[3-(trifluoromethyl)benzyl]-1,5,6,7-tetrahydro-4H-pyrazolo[4,3-b]pyridine-4-carboxamide] the value was 1 nM; for `O=C(NCc1ccc(S(=O)(=O)N2CCOCC2)cc1)N1CCCc2c1cnn2-c1ccc(F)cc1` [Example 27], 68 nM.
The value for `CNS(=O)(=O)c1cccc(CNC(=O)N2CCCc3c2cnn3-c2ccc(F)cc2)c1` [Example 29] was 16 nM; that for `CS(=O)(=O)c1ccc(CNC(=O)N2CCCc3c2cnn3-c2ccc(F)cc2)cn1` [Example 30] was 94 nM; that for `CS(=O)(=O)c1cc(CNC(=O)N2CCCc3c2cnn3-c2ccc(F)cc2)ccn1` [Example 32] was 34 nM.
Take `O=C(NCc1ccc(Br)cc1)N1CCCc2c1cnn2-c1ccc(F)cc1` [Example 37]: the IC50 was determined as 40 nM.
